Test results from US6979664B1, “Composition for accelerating seed germination and plant growth” (Bios Agriculture Inc., priority 1998, dated 2005).

Experiments:
Assay type in all cases: in vivo
Cotton = test: seedling emergence under field condition; settings: for seedling emergence under field condition: Cotton, six days after planting
Protocol: (§1) Seeds were surface sterilized with 2% sodium hypochlorite and soaked in different concentrations (10^−5, 10^−7, 10^−9M) of LCO solution for 12 h. Water served as the control. The study was conducted at the experimental field of the Macdonald campus of McGill University, Ste-Anne-de-Belleveue. Quebec, Canada. The field was ploughed to a fine tilth, seeds were hand planted in 1 m rows at 2.5 to 3 cm deep with three replications per treatment. […] The data was analyzed for significance by an ANOVA protected LSD test using SAS system Version 6.1 (SAS Inc., Cary, N.C., USA).

Beet = test: seedling emergence under field condition; settings: six days after planting
Protocol: as §1

Corn = test: seedling emergence under field condition; settings: six days after planting
Protocol: as §1

Soybean = test: seedling emergence under field condition; settings: six days after planting
Protocol: as §1

Gossypium sp. = test: seedling emergence at 25° C.
Description: (§2) Plastic pots (7.5 cm dia) were filled with 15 g of autoclaved vermiculite. Seeds of corn (Zea mays—Poaceae), bean (Phaseolus vulgaris—Fabaceae), canola (Brassica napus—Brassicaceae), cucumber (Cucumis sativus—Cucurbitaceae), cantaloupe (Cucumis melo—Cucurbitaceae), cotton (Gossypium sp.—Malvaceae), lettuce (Lactuca sativa—Asteraceae), beet (Beta vulgaris—Chenopodiaceae), and soybean (Glycine max—Fabaceae), were placed at 2.5 cm deep at the rate of 5 or 10 seeds per pot. Pots were irrigated with either 25 mL of LCO solution at different concentrations (10^−6–10^−14M) or aqueous acetonitrile or water, as controls. Acetonitrile was included as one of the controls since LCO was purified in this solvent (see Example 3), after 4 days the pots were irrigated with 10 mL of water once every two days. Each treatment had 4 replications in a randomized block design. Pots were placed on a green house bench maintained at 25±2° C. with a day/night cycle 16/8 h and relative humidity of 70%, or in a growth chamber set at 15° C. with a 16:8 day/night cycle. […] As defined above, seedling emergence has occurred when growth of the plant can be observed above the rooting medium surface. The percent emergence was calculated. The data were analyzed with Statistical Analysis System, version 6.12 (SAS institute Inc. Cary, N.C., USA).

Beta vulgaris = test: seedling emergence at 25° C.
Description: as §2

Cucumis melo = test: seedling emergence at 25° C.
Description: as §2

Letuca sativa = test: seedling emergence at 25° C.
Description: as §2

Zea mays = test: seedling emergence at 25° C.
Description: as §2

Phaseolus vulgaris = test: seedling emergence at 25° C.
Description: as §2

Glycine max = test: seedling emergence at 25° C.
Description: as §2

corn (Zea mays L.) = test: germination of corn after 72 h of treatment (petri plate); settings: 25° C.
Protocol: Seeds of corn (cv Pioneer 3921) were surface sterilized in 2% sodium hypochlorite solution for 2 minutes and placed in 9 cm diameter Petri plates containing a sheet of filter paper soaked in 10 ml of the required test solution (LCO 10^−5–10^−13). Water served as the control. Observations on germination, length of root primodia and shoot were taken after 72 h of incubation at 25° C. The data was analyzed for significance by an ANOVA protected LSD test using SAS system Version 6.1 (SAS Inc., Cary, N.C., USA).

SMILES: CCCCCCC=CCCCCCCCCCC(=O)NC1C(OC2C(CO)OC(OC3C(CO)OC(OC4C(CO)OC(OC5C(COC6OC(C)C(O)C(O)C6OC)OC(O)C(NC(C)=O)C5O)C(NC(C)=O)C4O)C(NC(C)=O)C3O)C(NC(C)=O)C2O)OC(CO)C(O)C1O (centres unmarked) [LCO, NodBj-V(C18:1Δ11)]
- seedling emergence under field condition (Cotton; 10^−7 M seed soak 12 h): 60.0 b
- seedling emergence under field condition (Cotton; LCO 10^−5 M seed soak 12 h): 16.6 a
- seedling emergence under field condition (Cotton; LCO 10^−9 M seed soak 12 h): 23.3 a
- improvement of emergence as compared to the control (Cotton; cotton, LCO at 10^−7M, field): more than 9 times
- seedling emergence under field condition (Beet; 10^−7 M seed soak 12 h): 46.6 c
- seedling emergence under field condition (Beet; LCO 10^−5 M seed soak 12 h): 28.3 a
- seedling emergence under field condition (Beet; LCO 10^−9 M seed soak 12 h): 38.3 ab
- seedling emergence under field condition (Corn; 10^−7 M seed soak 12 h): 60.0 b
- seedling emergence under field condition (Corn; LCO 10^−5 M seed soak 12 h): 80.0 b
- seedling emergence under field condition (Corn; LCO 10^−9 M seed soak 12 h): 53.3 b
- seedling emergence under field condition (Soybean; 10^−7 M seed soak 12 h): 33.3 b
- seedling emergence under field condition (Soybean; LCO 10^−5 M seed soak 12 h): 26.6 ab
- seedling emergence under field condition (Soybean; LCO 10^−9 M seed soak 12 h): 63.3 c
- seedling emergence (%) (Gossypium sp.; 10^−6 M): 88 a %
- seedling emergence (%) (Gossypium sp.; 10^−7 M): 66 ab %
- seedling emergence (%) (Gossypium sp.; 10^−8 M): 88 a %
- seedling emergence (%) (Gossypium sp.; 10^−9 M): 88 a %
- seedling emergence (%) (Gossypium sp.; 10^−10 M): 88 a %
- seedling emergence (%) (Beta vulgaris; 10^−7 M): 66.6%
- seedling emergence (%) (Beta vulgaris; 10^−9 M): 66 b %
- seedling emergence (%) (Beta vulgaris; 10^−11 M): 86 b %
- seedling emergence (%) (Beta vulgaris; 10^−13 M): 80 b %
- seedling emergence (%) (Cucumis melo; 10^−7 M): 100 b %
- seedling emergence (%) (Cucumis melo; 10^−9 M): 100 b %
- seedling emergence (%) (Cucumis melo; 10^−11 M): 100 b %
- seedling emergence (%) (Cucumis melo; 10^−13 M): 100 b %
- seedling emergence (%) (Letuca sativa; 10^−6 M): 45 a %
- seedling emergence (%) (Letuca sativa; 10^−7 M): 35 ab %
- seedling emergence (%) (Letuca sativa; 10^−8 M): 10 dc %
- seedling emergence (%) (Letuca sativa; 10^−9 M): 20 bcd %
- seedling emergence (%) (Letuca sativa; 10^−10 M): 25 abcd %
- seedling emergence (%) (Letuca sativa; 10^−11 M): 26 abcd %
- seedling emergence (%) (Letuca sativa; 10^−12 M): 30 abc %
- seedling emergence (%) (Letuca sativa; 10^−13 M): 5 d %
- seedling emergence (%) (Letuca sativa; 10^−14 M): 10 d %
- seedling emergence (%) (Zea mays; 10^−6 M): 76 ab %
- seedling emergence (%) (Zea mays; 10^−7 M): 68 abc %
- seedling emergence (%) (Zea mays; 10^−8 M): 84 a %
- seedling emergence (%) (Zea mays; 10^−9 M): 88 a %
- seedling emergence (%) (Zea mays; 10^−10 M): 84 a %
- seedling emergence (%) (Zea mays; 10^−11 M): 68 abc %
- seedling emergence (%) (Zea mays; 10^−12 M): 48 abc %
- seedling emergence (%) (Zea mays; 10^−13 M): 40 c %
- seedling emergence (%) (Zea mays; 10^−14 M): 40 c %
- seedling emergence (%) (Phaseolus vulgaris; 10^−6 M): 67 abc %
- seedling emergence (%) (Phaseolus vulgaris; 10^−7 M): 89 a %
- seedling emergence (%) (Phaseolus vulgaris; 10^−8 M): 78 ab %
- seedling emergence (%) (Phaseolus vulgaris; 10^−9 M): 67 abc %
- seedling emergence (%) (Phaseolus vulgaris; 10^−10 M): 44 abc %
- seedling emergence (%) (Phaseolus vulgaris; 10^−11 M): 22 c %
- seedling emergence (%) (Phaseolus vulgaris; 10^−12 M): 33 bc %
- seedling emergence (%) (Phaseolus vulgaris; 10^−13 M): 33 bc %
- seedling emergence (%) (Phaseolus vulgaris; 10^−14 M): 33 bc %
- seedling emergence (%) (Glycine max; 10^−6 M): 65 d %
- seedling emergence (%) (Glycine max; 10^−7 M): 80 bc %
- seedling emergence (%) (Glycine max; 10^−8 M): 90 ab %
- seedling emergence (%) (Glycine max; 10^−9 M): 100 a %
- seedling emergence (%) (Glycine max; 10^−10 M): 70 cd %
- seedling emergence (%) (Glycine max; 10^−11 M): 50 e %
- seedling emergence (%) (Glycine max; 10^−12 M): 80 bc %
- seedling emergence (%) (Glycine max; 10^−13 M): 70 cd %
- seedling emergence (%) (Glycine max; 10^−14 M): 70 cd %
- Length of root primodia (corn (Zea mays L.); LCO 10^−5 M): 53.0 ab mm
- Length of shoot primodia (corn (Zea mays L.); LCO 10^−5 M): 12.3 ab mm
- Percent germination (corn (Zea mays L.); LCO 10^−5 M): 80 bc Percent
- Length of root primodia (corn (Zea mays L.); LCO 10^−7 M): 57.6 bc mm
- Length of shoot primodia (corn (Zea mays L.); LCO 10^−7 M): 15.0 ab mm
- Percent germination (corn (Zea mays L.); LCO 10^−7 M): 73.3 b Percent
- Length of root primodia (corn (Zea mays L.); LCO 10^−9 M): 48.0 ab mm
- Length of shoot primodia (corn (Zea mays L.); LCO 10^−9 M): 9.6 a mm
- Percent germination (corn (Zea mays L.); LCO 10^−9 M): 73.3 b Percent
- Length of root primodia (corn (Zea mays L.); LCO 10^−11 M): 78.6 c mm
- Length of shoot primodia (corn (Zea mays L.); LCO 10^−11 M): 21.0 b mm
- Percent germination (corn (Zea mays L.); LCO 10^−11 M): 100 c Percent
- Length of root primodia (corn (Zea mays L.); LCO 10^−13 M): 43.0 bc mm
- Length of shoot primodia (corn (Zea mays L.); LCO 10^−13 M): 8.3 a mm
- Percent germination (corn (Zea mays L.); LCO 10^−13 M): 80 bc Percent
